Laboratory results as given in PubChem BioAssay AID248 (DTP/NCI, 2004).
Where “and” joins values, the source holds several entries; their conditions need not be identical. Identical values can stand only once. Inconclusive results and toxic doses are left out. Square brackets hold non-standard residues; d marks the D form. Peptide text beside a SMILES is read from it. * marks the point of attachment. ξ: configuration not given here. Cbz = O=C(OCc1ccccc1)*; ξNva = CCCC(N)C(=O)O

Tested on: L1210 leukemia ip in BDF1 mice, survival T/C
Test: NCI In Vivo Anticancer Drug Screen. Data for tumor model L1210 Leukemia (intraperitoneal) in B6D2F1 (BDF1) mice
Conditions: endpoint: mean survival time, higher = longer survival
Procedure, shortened: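 Each compound was tested against a transplantable tumor grown in mice. The endpoint was survival, with treated animals benchmarked against vehicle controls as a simple ratio.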

[1] = dose: 100.0 mg/kg/injection, schedule: Q04DX002 (ip), vehicle: Klucel (hydroxypropylcellulose) (HPC)
[2] = dose: 100.0 mg/kg/injection, schedule: Q04DX003 (ip), vehicle: saline with Tween-80
[3] = dose: 200.0 mg/kg/injection, schedule: Q04DX003 (ip), vehicle: saline with Tween-80
[4] = dose: 400.0 mg/kg/injection, schedule: Q04DX003 (ip), vehicle: saline with Tween-80
[5] = dose: 100.0 mg/kg/injection, schedule: Q01DX009 (ip), vehicle: saline
[6] = dose: 100.0 mg/kg/injection, schedule: Q04DX003 (ip), vehicle: saline
[7] = dose: 200.0 mg/kg/injection, schedule: Q01DX009 (ip), vehicle: saline
[8] = dose: 200.0 mg/kg/injection, schedule: Q04DX003 (ip), vehicle: saline
[9] = dose: 400.0 mg/kg/injection, schedule: Q01DX009 (ip), vehicle: saline
[10] = dose: 400.0 mg/kg/injection, schedule: Q04DX003 (ip), vehicle: saline
[11] = dose: 100.0 mg/kg/injection, schedule: Q04DX002 (ip), vehicle: saline with Tween-80
[12] = dose: 100.0 mg/kg/injection, schedule: Q04DX003 (ip), vehicle: other
[13] = dose: 200.0 mg/kg/injection, schedule: Q04DX003 (ip), vehicle: other
[14] = dose: 400.0 mg/kg/injection, schedule: Q04DX003 (ip), vehicle: other
[15] = dose: 50.0 mg/kg/injection, schedule: Q01DX009 (ip), vehicle: saline
[16] = dose: 25.0 mg/kg/injection, schedule: Q01DX009 (ip), vehicle: saline with Tween-80
[17] = dose: 25.0 mg/kg/injection, schedule: Q04DX002 (ip), vehicle: saline with Tween-80
[18] = dose: 50.0 mg/kg/injection, schedule: Q01DX009 (ip), vehicle: saline with Tween-80
[19] = dose: 50.0 mg/kg/injection, schedule: Q04DX002 (ip), vehicle: saline with Tween-80

In the case of N#C/C(=C\c1ccco1)C1CCC([N+](=O)[O-])CC1 (configuration not stated), the T/C [1] is reported as 104 % of control, the T/C (dose: 200.0 mg/kg/injection, schedule: Q04DX002 (ip), vehicle: Klucel (hydroxypropylcellulose) (HPC)) is reported as 104 % of control and the T/C (dose: 400.0 mg/kg/injection, schedule: Q04DX002 (ip), vehicle: Klucel (hydroxypropylcellulose) (HPC)) is reported as 93 % of control.
For CC1(C)C(=O)C=C(N2CCCCC2)c2ccccc21, the T/C [2] was 101 % of control, the T/C [3] was 98 % of control and the T/C [4] was 97 % of control.
In the case of O=C1CC(N2C(=O)C3C4CCC(CC4)C3C2=O)C(=O)N1 (configuration not stated), the T/C [2] is reported as 96 % of control, the T/C [3] is reported as 100 % of control and the T/C [4] is reported as 112 % of control.
With C[N+]12CN3CN(C1)S(=O)(=O)N(C3)C2 the T/C [5] was 107 % of control, the T/C [6] was 95 % of control and the T/C [7] was 108 % of control. The T/C [8] was 97 % of control, the T/C [9] was 110 % of control and the T/C [10] was 103 % of control.
In the case of N/C(N=P(c1ccccc1)(c1ccccc1)c1ccccc1)=N\S(=O)(=O)c1ccc([N+](=O)[O-])cc1, the T/C (dose: 25.0 mg/kg/injection, schedule: Q04DX002 (ip), vehicle: Klucel (hydroxypropylcellulose) (HPC)) is reported as 104 % of control, the T/C (dose: 50.0 mg/kg/injection, schedule: Q04DX002 (ip), vehicle: Klucel (hydroxypropylcellulose) (HPC)) is reported as 111 % of control and the T/C [1] is reported as 96 % of control.
In the case of CCCCOP(=O)(NNP(=O)(OCCCC)OCCCC)OCCCC, the T/C [11] is reported as 108 % of control, the T/C (dose: 200.0 mg/kg/injection, schedule: Q04DX002 (ip), vehicle: saline with Tween-80) is reported as 116 % of control and the T/C (dose: 400.0 mg/kg/injection, schedule: Q04DX002 (ip), vehicle: saline with Tween-80) is reported as 105 % of control.
CC1(C)N=C(N)N=C(N)N1c1ccc(OCCOc2ccc(S(=O)(=O)F)cc2)c(Cl)c1 was tested, and the T/C (dose: 33.0 mg/kg/injection, schedule: Q04DX003 (ip), vehicle: Klucel (hydroxypropylcellulose) (HPC)) was 102 % of control, the T/C (dose: 33.0 mg/kg/injection, schedule: Q04DX003 (ip), vehicle: saline sonified) was 117 % of control and the T/C (dose: 50.0 mg/kg/injection, schedule: Q01DX009 (ip), vehicle: saline sonified) was 152 % of control. The T/C (dose: 50.0 mg/kg/injection, schedule: Q04DX003 (ip), vehicle: Klucel (hydroxypropylcellulose) (HPC)) was 112 % of control, the T/C (dose: 75.0 mg/kg/injection, schedule: Q04DX003 (ip), vehicle: Klucel (hydroxypropylcellulose) (HPC)) was 112 % of control and the T/C (dose: 75.0 mg/kg/injection, schedule: Q04DX003 (ip), vehicle: saline sonified) was 113 % of control. The T/C (dose: 100.0 mg/kg/injection, schedule: Q01DX009 (ip), vehicle: saline sonified) was 109 % of control, the T/C [12] was 96 % of control and the T/C [13] was 103 % of control. The T/C [14] was 96 % of control.
In the case of CCOC(=O)CNC(=O)C(CSC(c1ccccc1)(c1ccccc1)c1ccccc1)NC(c1ccccc1)(c1ccccc1)c1ccccc1 (configuration not stated), the T/C [15] is reported as 89 % of control, the T/C [5] is reported as 103 % of control and the T/C [7] is reported as 92 % of control. For the same molecule, the T/C [9] was 94 % of control.
NNCCO was tested, and the T/C [16] was 97 % of control, the T/C [17] was 94 % of control and the T/C [18] was 106 % of control. For the same molecule, the T/C [19] was 105 % of control and the T/C [11] was 106 % of control.
With CCCC(NC(=O)CNC(=O)CNC(=O)OCc1ccccc1)C(=O)OC (stereo not drawn) (Cbz-Gly-Gly-[ξNva]-OMe) the T/C [2] was 98 % of control, the T/C [3] was 97 % of control and the T/C [4] was 103 % of control.
CCCCCCCCCCCSCCCCCCCCCCC was tested, and the T/C [2] was 113 % of control, the T/C [3] was 94 % of control and the T/C [4] was 91 % of control.
For NC(N)=Nc1nc2ccc([N+](=O)[O-])cc2[nH]1, the T/C [5] was 93 % of control, the T/C [6] was 90 % of control and the T/C [7] was 91 % of control. The T/C [8] was 94 % of control, the T/C [9] was 96 % of control and the T/C [10] was 94 % of control.
In the case of CC(CCC(=O)O)(c1ccc(O)cc1)c1ccc(O)cc1, the T/C [12] is reported as 99 % of control, the T/C [13] is reported as 105 % of control and the T/C [14] is reported as 97 % of control.
For CN(C)C(=O)Nc1ccncc1, the T/C (dose: 25.0 mg/kg/injection, schedule: Q01DX001 (ip), vehicle: saline) was 97 % of control, the T/C (dose: 25.0 mg/kg/injection, schedule: Q01DX009 (ip), vehicle: saline) was 98 % of control and 91 % of control and the T/C [17] was 93 % of control and 97 % of control. The T/C (dose: 25.0 mg/kg/injection, schedule: Q04DX003 (ip), vehicle: saline) was 103 % of control, the T/C (dose: 50.0 mg/kg/injection, schedule: Q01DX001 (ip), vehicle: saline) was 95 % of control and the T/C [15] was 97 % of control and 88 % of control. For the same molecule, the T/C [19] was 98 % of control and 105 % of control and the T/C (dose: 50.0 mg/kg/injection, schedule: Q04DX003 (ip), vehicle: saline) was 101 % of control.
For COc1cc(CCN)cc(OC)c1OC, the T/C (dose: 75.0 mg/kg/injection, schedule: Q01DX001 (ip), vehicle: saline) was 104 % of control, the T/C (dose: 150.0 mg/kg/injection, schedule: Q01DX001 (ip), vehicle: saline) was 103 % of control and the T/C (dose: 300.0 mg/kg/injection, schedule: Q01DX001 (ip), vehicle: saline) was 104 % of control.
In the case of CCCN(CCC)CCSC(=S)NCCOC, the T/C (dose: 4.0 mg/kg/injection, schedule: Q01DX001 (sc), vehicle: olive oil, sesame oil, peanut oil) is reported as 110 % of control, the T/C (dose: 8.0 mg/kg/injection, schedule: Q01DX001 (sc), vehicle: olive oil, sesame oil, peanut oil) is reported as 112 % of control and the T/C (dose: 16.0 mg/kg/injection, schedule: Q01DX001 (sc), vehicle: olive oil, sesame oil, peanut oil) is reported as 116 % of control. The T/C (dose: 32.0 mg/kg/injection, schedule: Q01DX001 (sc), vehicle: olive oil, sesame oil, peanut oil) was 118 % of control, the T/C (dose: 50.0 mg/kg/injection, schedule: Q01DX001 (ip), vehicle: olive oil, sesame oil, peanut oil) was 96 % of control and the T/C (dose: 50.0 mg/kg/injection, schedule: Q01DX009 (ip), vehicle: acetone) was 93 % of control. The T/C (dose: 100.0 mg/kg/injection, schedule: Q01DX001 (ip), vehicle: acetone) was 110 % of control, the T/C (dose: 100.0 mg/kg/injection, schedule: Q01DX001 (ip), vehicle: olive oil, sesame oil, peanut oil) was 92 % of control and the T/C (dose: 100.0 mg/kg/injection, schedule: Q01DX009 (ip), vehicle: acetone) was 101 % of control. The T/C (dose: 200.0 mg/kg/injection, schedule: Q01DX001 (ip), vehicle: acetone) was 104 % of control, the T/C (dose: 200.0 mg/kg/injection, schedule: Q01DX001 (ip), vehicle: olive oil, sesame oil, peanut oil) was 103 % of control and the T/C (dose: 400.0 mg/kg/injection, schedule: Q01DX001 (ip), vehicle: olive oil, sesame oil, peanut oil) was 88 % of control.
In the case of O=C1C=CC(=O)N1c1ccc(Cc2ccc(N3C(=O)C=CC3=O)cc2)cc1, the T/C (dose: 26.6 mg/kg/injection, schedule: Q01DX Z (ip), vehicle: methylcellulose (MC)) is reported as 90 % of control and the T/C (dose: 40.0 mg/kg/injection, schedule: Q01DX Z (ip), vehicle: methylcellulose (MC)) is reported as 95 % of control.
For CCOC(=O)CCCCCC(C)=O, the T/C (dose: 100.0 mg/kg/injection, schedule: Q04DX003 (ip), vehicle: acetone) was 103 % of control, the T/C (dose: 200.0 mg/kg/injection, schedule: Q04DX003 (ip), vehicle: acetone) was 100 % of control and the T/C (dose: 400.0 mg/kg/injection, schedule: Q04DX003 (ip), vehicle: acetone) was 95 % of control.
Cc1c(-c2ccccc2)n(O)[n+]([O-])c1-c1ccccc1 was tested, and the T/C (dose: 50.0 mg/kg/injection, schedule: Q01DX009 (ip), vehicle: Klucel (hydroxypropylcellulose) (HPC)) was 98 % of control, the T/C (dose: 100.0 mg/kg/injection, schedule: Q01DX009 (ip), vehicle: Klucel (hydroxypropylcellulose) (HPC)) was 94 % of control and the T/C (dose: 200.0 mg/kg/injection, schedule: Q01DX009 (ip), vehicle: Klucel (hydroxypropylcellulose) (HPC)) was 94 % of control.
For Cc1ccc(C(=O)Cl)cc1S(=O)(=O)F, the T/C [16] was 95 % of control, the T/C (dose: 25.0 mg/kg/injection, schedule: Q04DX003 (ip), vehicle: saline with Tween-80) was 96 % of control and the T/C [18] was 104 % of control. The T/C (dose: 50.0 mg/kg/injection, schedule: Q04DX003 (ip), vehicle: saline with Tween-80) was 100 % of control, the T/C [2] was 96 % of control and the T/C [3] was 94 % of control and 102 % of control.
